Source: US11555026B2, “AHR inhibitors and uses thereof” (Ikena Oncology, Inc., priority 2017, dated 2023)

target: T1, AHR (UniProt P35869); assay: DRE-Luciferase Reporter Assay (Example 1A); type: cell-based; design: IC50; conditions: concentration which inhibits half of the luciferase activity induced by an AHR activating ligand; murine (Hepa1-6, Hepa-1c1c7) or human (HepG2) DRE-luciferase reporter cells, cell line used not stated
T1 sequence (P35869 1-848): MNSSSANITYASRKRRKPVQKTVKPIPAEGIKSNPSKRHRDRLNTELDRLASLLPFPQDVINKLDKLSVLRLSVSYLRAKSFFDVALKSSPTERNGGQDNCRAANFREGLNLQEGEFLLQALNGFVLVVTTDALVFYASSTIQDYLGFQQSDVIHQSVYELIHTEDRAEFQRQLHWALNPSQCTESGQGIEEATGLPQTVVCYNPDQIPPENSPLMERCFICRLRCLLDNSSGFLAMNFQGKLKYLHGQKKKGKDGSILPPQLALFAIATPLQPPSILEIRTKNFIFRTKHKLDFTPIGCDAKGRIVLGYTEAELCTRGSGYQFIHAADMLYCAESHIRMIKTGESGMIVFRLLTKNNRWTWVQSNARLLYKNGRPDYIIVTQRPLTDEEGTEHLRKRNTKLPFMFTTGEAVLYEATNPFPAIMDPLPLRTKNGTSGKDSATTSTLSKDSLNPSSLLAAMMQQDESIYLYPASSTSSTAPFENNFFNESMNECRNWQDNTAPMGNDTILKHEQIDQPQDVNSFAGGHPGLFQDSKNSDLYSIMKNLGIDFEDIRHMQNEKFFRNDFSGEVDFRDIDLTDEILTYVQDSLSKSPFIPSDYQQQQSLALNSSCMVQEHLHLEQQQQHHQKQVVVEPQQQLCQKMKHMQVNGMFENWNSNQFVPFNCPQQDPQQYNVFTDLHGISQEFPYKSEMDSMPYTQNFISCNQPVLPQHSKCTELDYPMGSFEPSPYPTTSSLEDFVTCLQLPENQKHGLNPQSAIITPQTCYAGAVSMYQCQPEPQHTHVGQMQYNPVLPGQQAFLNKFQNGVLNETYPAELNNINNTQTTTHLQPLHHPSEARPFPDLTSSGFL
Method: AHR binds to Dioxin Responsive Elements (DRE) upstream of genes that it activates. One measure of AHR activity is activation of a reporter gene, such as luciferase, downstream of one or multiple DRE elements. Luciferase activity will reflect activation and inhibition of AHR in the cells expressing his reporter.
Murine Hepa1-6 or Hepa-1c1c7 or other murine cell line with a DRE-luciferase reporter either stably or transiently transfected were plated in media in plates (96-well, 384-well or other plates) and incubated overnight at 37° C. in a CO2 incubator. Likewise, human HepG2 or other human cell line with a DRE-luciferase reporter either stably or transiently transfected were plated in media in plates (96-well, 384-well or other plates) and incubated overnight at 37° C. in a CO2 incubator.
The next day, an AHR activating ligand, such as TCDD, kynurenine, ITE (2-(1H-indole-3-ylcarbonyl)-4-thiazolecarboxylic methyl ester), VAF347, BNF (beta-naphthoflavone), FICZ (6-formylindolo(3,2-b) carbazole or other AHR ligands, was added with or without AHR antagonist.
Cells were incubated for 4, 15 or 24 hours or another time point and then lysed for determination of luciferase activity as a read-out of the AHR activation or inhibition. Luciferase was measured with a commercial kit such as the Promega Luciferase kit or any kit or reagents that provide the luciferin substrate for measuring luciferase activity. The level of luciferase with only activating ligand added was the maximum signal while the luciferase with no ligand was the minimum signal. IC50 values were determined as the concentration which inhibits half of the luciferase activity.

| IC50 | Compound |
| --- | --- |
| 500 to 1000 nM | Cc1ccccc1NC(=O)c1ccc(NC(=O)c2ccnn2C)c(C)n1 [I-12, 6-Methyl-5-(1-methyl-1H-pyrazole-5-carboxamido)-N-(o-tolyl)picolinamide] |
| > 1500 nM | Cc1cc(C(=N)Nc2ncccc2C)ccc1NC(=O)c1ccnn1C [I-13] |
| > 1500 nM | Cc1cc(C(=O)N2CCc3ccccc32)ccc1NC(=O)c1ccnn1C [I-2] |
| < 500 nM | Cn1nccc1C(=O)Nc1ccc2nc(-c3ccccc3)ccc2c1 [I-22, 2-Methyl-N-(2-phenyl-6-quinolyl)pyrazole-3-carboxamide] |
| > 1500 nM | Cc1ccccc1/C=C/c1ccc(NC(=O)c2ccn[nH]2)c(C)c1 [I-36] |
| < 500 nM | Cc1ccccc1/C=C/c1ccc(NC(=O)c2ccnn2C)c(C)c1 [I-5, (E)-1-methyl-N-(2-methyl-4-(2-methylstyryl)phenyl)-1H-pyrazole-5-carboxamide] |
| > 1500 nM | Cc1ccccc1/N=N/c1ccc(NC(=O)c2ccccn2)c(C)c1 [I-14] |
| 1000 to 1500 nM | Cc1ccccc1NCc1ccc(NC(=O)c2ccnn2C)c(C)n1 [I-15, 2-Methyl-N-[2-methyl-6-[(2-methylanilino)methyl]-3-pyridyl]pyrazole-3-carboxamide] |
| < 500 nM | Cc1cc(C2OC2c2ccccc2C)ccc1NC(=O)c1ccnn1C (centres unmarked) [I-23, 2-Methyl-N-[2-methyl-4-[3-(o-tolyl)oxiran-2-yl]phenyl]pyrazole-3-carboxamide] |
| < 500 nM | Cc1ccccc1C#Cc1ccc(NC(=O)c2ccnn2C)c(C)c1 [I-29, 2-Methyl-N-[2-methyl-4-[2-(o-tolyl)ethynyl]phenyl]pyrazole-3-carboxamide] |
| 500 to 1000 nM | Cc1ccccc1/C=C/c1ccc(NC(=O)c2ccnn2C)cc1 [I-27, 2-Methyl-N-[4-[(E)-2-(o-tolyl)vinyl]phenyl]pyrazole-3-carboxamide] |
| > 1500 nM | Cc1ccccc1CCc1ccc(NC(=O)c2ccnn2C)c(C)c1 [I-6, 1-methyl-N-(2-methyl-4-(2-methylphenethyl)phenyl)-1H-pyrazole-5-carboxamide] |
| > 1500 nM | Cc1ccccc1CNc1ccc(NC(=O)c2ccnn2C)c(C)c1 [I-10, 1-methyl-N-(2-methyl-4-((2-methylbenzyl)amino)phenyl)-1H-pyrazole-5-carboxamide] |
| > 1500 nM | Cc1cc(-c2ccc3ccccc3c2)ccc1NC(=O)c1ccnn1C [I-32] |
| < 500 nM | Cc1cc(/C=C/c2ccccc2)ccc1NC(=O)c1ccnn1C [I-20, 2-Methyl-N-[2-methyl-4-[(E)-styryl]phenyl]pyrazole-3-carboxamide] |
| < 500 nM | Cc1ccccc1/N=N/c1ccc(C(=O)Nc2ccnn2C)c(C)c1 [I-25, 2-Methyl-N-(2-methylpyrazol-3-yl)-4-[(E)-o-tolylazo]benzamide] |

| IC50 | Compound |
| --- | --- |
| > 1500 nM | Cc1cc(C2OC2c2ccccc2)ccc1NC(=O)c1ccnn1C (centres unmarked) [I-21] |
| < 500 nM | Cc1cc(COc2ccccc2C)ccc1NC(=O)c1ccnn1C [I-18, 2-Methyl-N-[2-methyl-4-[(2-methylphenoxy)methyl]phenyl]pyrazole-3-carboxamide] |
| > 1500 nM | Cc1cc(C(=O)n2ccc3ccccc32)ccc1NC(=O)c1ccnn1C [I-4] |
| > 1500 nM | Cc1ccccc1/C=C/c1ccc(NC(=O)c2cncn2C)c(C)c1 [I-37] |
| > 1500 nM | Cc1ccccc1/C=C\c1ccc(NC(=O)c2ccnn2C)c(C)c1 [I-7, (Z)-1-methyl-N-(2-methyl-4-(2-methylstyryl)phenyl)-1H-pyrazole-5-carboxamide] |
| > 1500 nM | Cc1cc(/C=C/c2cccnc2C)ccc1NC(=O)c1ccnn1C [I-19] |
| > 1500 nM | Cc1cc(C(=O)Nc2ncccc2C)ccc1NC(=O)c1ccnn1C [I-3] |
| > 1500 nM | Cc1cc(/N=N/c2ncccc2C)ccc1NC(=O)c1ccnn1C [I-26] |
| > 1500 nM | Cc1ccccc1-c1ccc2cc(NC(=O)c3ccnn3C)ccc2n1 [I-30] |
| > 1500 nM | Cc1cc(-c2cc3ccccc3cn2)ccc1NC(=O)c1ccnn1C [I-31] |
| > 1500 nM | Cc1cc(C(=O)N2CCCc3ccccc32)ccc1NC(=O)c1ccnn1C [I-1] |
| > 1500 nM | Cc1ccccc1NC(=O)c1ccc(NC(=O)c2ccnn2C)c(C)c1 [I-8, 1-methyl-N-(2-methyl-4-(o-tolylcarbamoyl)phenyl)-1H-pyrazole-5-carboxamide] |
| < 500 nM | Cc1ccccc1/N=N/c1ccc(NC(=O)c2ccnn2C)cc1C [I-24, 2-Methyl-N-[3-methyl-4-[(E)-o-tolylazo]phenyl]pyrazole-3-carboxamide] |
| > 1500 nM | Cc1ccccc1NCc1ccc(NC(=O)c2ccnn2C)c(C)c1 [I-11, 1-methyl-N-(2-methyl-4-((o-tolylamino)methyl)phenyl)-1H-pyrazole-5-carboxamide] |
| > 1500 nM | Cc1cc(N)ccc1NC(=O)c1ccnn1C [I-16] |
| > 1500 nM | Cc1cc(NC(=O)c2ccccc2C)ccc1NC(=O)c1ccnn1C [I-9, 1-methyl-N-(2-methyl-4-(2-methylbenzamido)phenyl)-1H-pyrazole-5-carboxamide] |
